Measurements published in patent US20100048693A1, “Treatment of COPD” (The Regents of the University of Colorado, A Body Corporate, priority 2006, published 2010).
“Also recorded” adds a separate entry of the source.

Experiments:
Format in all cases: cell-based, human
PGI2S protein expression = assay: Western blotting of PGI2S protein expression in HPMVEC; details: about 48 hours post exposure
Description: (§1) Human pulmonary microvascular endothelial cells (HPMVEC, passage 4-6) and EGM-2-MV medium (containing 5% FBS, hydrocortisone, human recombinant VEGF, recombinant human fibroblast growth factor-B, recombinant insulin-like growth factor-1, human recombinant epidermal growth factor, ascorbic acid, gentamycin and amphotericin-B) were purchased from Clonetics Corporation (Baltimore, Md., USA). Cells were grown to confluency at 37° C. in a humidified atmosphere of 21% O2, 5% CO2. N-acetyl-L-cysteine (NAC) and diphenyleneiodonium chloride (DPI) were obtained from Sigma-Aldrich (St. Louis, Mo., USA). N-nitro-l-arginine methyl ester (L-NAME) was obtained from Cayman Chemical (Ann Arbor, Mich.). Z-Asp2,6-dichlorobenzoylmethylketone (Caspase Family Inhibitor IV) was obtained from Alexis Biochemicals (San Diego, Calif., USA). Both an SOD mimetic and catalase were obtained from National Jewish Medical Center. Acrolein, an α,β-unsaturated aldehyde, and several […] aldehydes (acetaldehyde, crotonaldehyde, proprionaldehyde (i.e., propanal) were purchased from Sigma Aldrich (St. Louis, Mo., USA)
20 μg of protein was separated on NuPAGE Novex 4-12% Bis-Tris Gel (Invitrogen Carlsbad, Calif., USA) and transferred to a polyvinylidene fluoride (PVDF) membrane (Invitrogen, Carlsbad, Calif., USA). The membrane was blocked with 5% nonfat dry milk in PBS containing 0.05% Tween (PBST) for 1 hour. […]

PGI2S gene expression = assay: Real time RT-PCR of PGI2S gene expression in HPMVEC; details: for PGI2S gene (mRNA) expression after aldehyde exposure: HPMVEC, 1 and 10 μM aldehyde, about 24 hours after exposure; for effect of pre-incubation on PGI2S gene expression in CSE-exposed cells: four hour pre-incubation (SOD mimetic 100 U/ml, catalase 100 U/ml, DPI 0.1 μM, L-NAME 1 mM), 1% CSE for 4 hours
Description: as §1
(§2) Cigarette smoke extract was prepared by a modification of a previously published method, e.g., Carp et al., Am. Rev. Respir. Dis., 1978, 118, 617-621. Briefly, one non-filtered Camel cigarette (R.J. Reynolds, Winston-Salem, N.C.) was passed through 10 mL of Phosphate-buffered saline (PBS) using a vacuum pump. This 100% CSE was adjusted to pH 7.4 and filtered through a […] pore filter (Fisher, Hampton, N.H., USA) and the CSE was diluted to the appropriate concentration and added to endothelial cells within 10 min of preparation.
(§3) Total RNA was extracted using the RNeasy Mini Kit (Qiagen, Valencia, Calif.), following the manufacturer's instructions. 1 μg of RNA was reverse-transcribed using random primer and MultiScribe RT (High-Capacity cDNA Archive Kit, Applied Biosystems, Foster City, Calif.). Assay-on-demand gene expression probe for PGI2S: Hs00168766, COX-1:Hs00377721, COX-2:Hs00153133, cPLA2:Hs00233352, and β-actin: Hs999999903 were obtained from Applied Biosystems (Foster City, Calif.) PCR reactions were performed in 20 μL volumes containing 9 μL of cDNA, 10 μL of TaqMan Master Mix (Applied Biosystems) and 1 μL of assay-on-demand primer and probe. Real-time PCR was conducted on the Applied Biosystems GeneAmp 5700 sequence Detection System and signal was detected by the GeneAmp 5700 SDS software (Applied Biosystems). All values were reported relative to β-Actin expression.

COX-2 gene expression = assay: Real time RT-PCR of COX-2 gene expression in HPMVEC; details: for COX-2 gene expression after aldehyde exposure: HPMVEC, 1 and 10 μM acrolein; for effect of pre-incubation on COX-2 gene expression in CSE-exposed cells: four hour pre-incubation (SOD mimetic 100 U/ml, catalase 100 U/ml, DPI 0.1 μM, L-NAME 1 mM), 1% CSE for 4 hours
Description: as §1, §2, §3

HPMVEC = assay: Caspase 3/7 assay of apoptosis in HPMVEC exposed to CSE; details: HPMVEC pre-treated with Iloprost 1 μM and 10 μM for 30 minutes prior to CSE exposure
Description: Human pulmonary microvascular endothelial cells (HPMVEC, passage 4-6) and EGM-2-MV medium (containing 5% FBS, hydrocortisone, human recombinant VEGF, recombinant human fibroblast growth factor-B, recombinant insulin-like growth factor-1, human recombinant epidermal growth factor, ascorbic acid, gentamycin and amphotericin-B) were purchased from Clonetics Corporation (Baltimore, Md., USA). Cells were grown to confluency at 37° C. in a humidified atmosphere of 21% O2, 5% CO2. N-acetyl-L-cysteine (NAC) and diphenyleneiodonium chloride (DPI) were obtained from Sigma-Aldrich (St. Louis, Mo., USA). N-nitro-l-arginine methyl ester (L-NAME) was obtained from Cayman Chemical (Ann Arbor, Mich.). […]
Immunohistochemical staining on both PGI2S transgenic mice and wild type littermates was conducted using similar protocols to the above, however, cleaved caspase 3 antibody (Cell Signaling technology Danvers, Mass.) was used to assess apoptosis. In a blinded fashion, small, medium and large pulmonary arteries were scored for endothelial caspase staining. In-vitro, the rate of apoptosis in primary human microvascular endothelial cells was analyzed by the Vybrant Apoptosis Assay Kit from Molecular Probes Inc. (Eugene, Oreg., USA) according to the manufacturer's protocol. […] In addition, apoptosis of HPMVEC was assessed by Caspase 3/7 assay according to the protocol provided (Promega Madison, Wis.).

C=CC=O [Acrolein]
PGI2S protein expression after aldehyde exposure (PGI2S protein expression): suppressed
PGI2S gene (mRNA) expression after aldehyde exposure (PGI2S gene expression): reduction in PGI2S gene expression
COX-2 gene expression after aldehyde exposure (COX-2 gene expression): trend toward induction
COX-2 gene expression after aldehyde exposure (COX-2 gene expression; listed as acrolein): No significant change

c1ccc2c(c1)[I+]c1ccccc1-2 [DPI, diphenyleneiodonium chloride]
effect of pre-incubation on PGI2S gene expression in CSE-exposed cells (PGI2S gene expression): did not significantly affect
effect of pre-incubation on COX-2 gene expression in CSE-exposed cells (COX-2 gene expression): did not significantly affect

CC#CCC(C)[C@H](O)/C=C/[C@@H]1[C@H]2C/C(=C/CCCC(=O)O)C[C@H]2C[C@H]1O (stereo partly drawn) [Iloprost]
endothelial apoptosis as measured by caspase 3/7 activity (HPMVEC): significant reduction; also recorded: at least partial protective anti-apoptotic effect

CC(=O)N[C@@H](CS)C(=O)O [NAC, N-acetyl-L-cysteine]
prevention of down-regulation of PGI2S gene expression by 1% CSE (PGI2S gene expression; HPMVEC pre-incubated four hours with 1 mM NAC, then 1% CSE, RT-PCR at four hours and 24 hours): no significant prevention
effect on CSE mediated induction of COX-2 gene expression (COX-2 gene expression; HPMVEC pre-incubated four hours with 1 mM NAC, then 1% CSE, P<0.05): significantly reduce or prevent

CC=O [acetaldehyde]
PGI2S gene (mRNA) expression after aldehyde exposure (PGI2S gene expression): did not result in suppression

C/C=C/C=O [crotonaldehyde]
PGI2S gene (mRNA) expression after aldehyde exposure (PGI2S gene expression): did not result in suppression

CCC=O [propionaldehyde]
PGI2S gene (mRNA) expression after aldehyde exposure (PGI2S gene expression): did not result in suppression
PGI2S gene (mRNA) expression after aldehyde exposure (PGI2S gene expression; listed as Propionaldehyde): statistically significant induction

catalase
effect of pre-incubation on PGI2S gene expression in CSE-exposed cells (PGI2S gene expression): did not significantly affect
effect of pre-incubation on COX-2 gene expression in CSE-exposed cells (COX-2 gene expression): did not significantly affect
